Measured values as given in PMC13464545, “Mouse Norovirus Uses Host Metabolites to Enhance Receptor Binding and Evade Immune Recognition” (Medical research archives, 2022).

Molecular target: T1, MNV P domain (Murine norovirus 1, UniProt Q80J94)
T1 construct: gene ORF2; C-terminal protruding (P) domain of VP1, expressed as soluble form without the shell domain; dimerizes
Assay: isothermal titration calorimetry
Format: binding

T1 sequence (Q80J94 229-541): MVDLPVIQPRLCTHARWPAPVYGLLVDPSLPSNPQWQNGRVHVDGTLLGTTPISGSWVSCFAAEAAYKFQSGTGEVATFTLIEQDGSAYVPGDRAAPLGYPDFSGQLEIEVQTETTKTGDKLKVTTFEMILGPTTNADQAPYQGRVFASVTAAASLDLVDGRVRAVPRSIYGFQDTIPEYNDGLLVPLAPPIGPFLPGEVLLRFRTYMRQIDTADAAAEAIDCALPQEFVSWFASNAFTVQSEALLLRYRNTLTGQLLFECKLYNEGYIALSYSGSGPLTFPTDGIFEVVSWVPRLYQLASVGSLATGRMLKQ

C[C@H](CCC(=O)NCC(=O)O)[C@H]1CC[C@H]2[C@@H]3[C@H](O)C[C@@H]4C[C@H](O)CC[C@]4(C)[C@H]3CC[C@]12C [GCDCA]
Kd: ~13 µM
